Data reported in PubChem BioAssay AID248 (DTP/NCI, 2004).
Toxic doses and inconclusive results are not listed. No stated cut-off is given here; in the data, active means T/C of 150% or more; inactive means T/C below 125%.

Test system: L1210 leukemia ip in BDF1 mice, survival T/C
Assay: NCI In Vivo Anticancer Drug Screen. Data for tumor model L1210 Leukemia (intraperitoneal) in B6D2F1 (BDF1) mice
Details: endpoint: mean survival time, higher = longer survival
Method in brief: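 Ratio derived from survival: compound-dosed mice over vehicle-dosed mice, all bearing a transplantable tumor.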

[1] = dose: 100.0 mg/kg/injection, schedule: Q04DX003 (ip), vehicle: other
[2] = dose: 200.0 mg/kg/injection, schedule: Q04DX003 (ip), vehicle: other
[3] = dose: 400.0 mg/kg/injection, schedule: Q04DX003 (ip), vehicle: other
[4] = dose: 100.0 mg/kg/injection, schedule: Q01DX009 (ip), vehicle: saline with Tween-80
[5] = dose: 100.0 mg/kg/injection, schedule: Q04DX003 (ip), vehicle: saline
[6] = dose: 200.0 mg/kg/injection, schedule: Q01DX009 (ip), vehicle: saline with Tween-80
[7] = dose: 200.0 mg/kg/injection, schedule: Q04DX003 (ip), vehicle: saline
[8] = dose: 400.0 mg/kg/injection, schedule: Q01DX009 (ip), vehicle: saline with Tween-80
[9] = dose: 400.0 mg/kg/injection, schedule: Q04DX003 (ip), vehicle: saline
[10] = dose: 100.0 mg/kg/injection, schedule: Q01DX001 (ip), vehicle: Klucel (hydroxypropylcellulose) (HPC)
[11] = dose: 100.0 mg/kg/injection, schedule: Q04DX003 (ip), vehicle: Klucel (hydroxypropylcellulose) (HPC)
[12] = dose: 200.0 mg/kg/injection, schedule: Q04DX003 (ip), vehicle: Klucel (hydroxypropylcellulose) (HPC)
[13] = dose: 400.0 mg/kg/injection, schedule: Q04DX003 (ip), vehicle: Klucel (hydroxypropylcellulose) (HPC)
[14] = dose: 100.0 mg/kg/injection, schedule: Q01DX009 (ip), vehicle: Klucel (hydroxypropylcellulose) (HPC)
[15] = dose: 200.0 mg/kg/injection, schedule: Q01DX009 (ip), vehicle: Klucel (hydroxypropylcellulose) (HPC)
[16] = dose: 400.0 mg/kg/injection, schedule: Q01DX009 (ip), vehicle: Klucel (hydroxypropylcellulose) (HPC)

Measured: T/C

CN(C)N=Nc1ccccc1C(=O)O
inactive: dose: 0.78 mg/kg/injection, schedule: Q01DX009 (ip), vehicle: Klucel (hydroxypropylcellulose) (HPC) 105 % of control | dose: 1.56 mg/kg/injection, schedule: Q01DX009 (ip), vehicle: Klucel (hydroxypropylcellulose) (HPC) 97 % of control | dose: 3.12 mg/kg/injection, schedule: Q01DX009 (ip), vehicle: Klucel (hydroxypropylcellulose) (HPC) 103 % of control | dose: 6.25 mg/kg/injection, schedule: Q01DX009 (ip), vehicle: Klucel (hydroxypropylcellulose) (HPC) 103 % of control | dose: 11.0 mg/kg/injection, schedule: Q01DX009 (ip), vehicle: saline with Tween-80 109 % of control | dose: 12.5 mg/kg/injection, schedule: Q01DX001 (ip), vehicle: saline with Tween-80 95 % of control | dose: 12.5 mg/kg/injection, schedule: Q01DX009 (ip), vehicle: saline with Tween-80 123 % of control | dose: 12.5 mg/kg/injection, schedule: Q04DX003 (ip), vehicle: saline with Tween-80 101 % of control | dose: 17.0 mg/kg/injection, schedule: Q01DX009 (ip), vehicle: saline with Tween-80 107 % of control | dose: 25.0 mg/kg/injection, schedule: Q01DX001 (ip), vehicle: saline with Tween-80 98 % of control | dose: 25.0 mg/kg/injection, schedule: Q01DX009 (ip), vehicle: saline with Tween-80 115 % of control | dose: 25.0 mg/kg/injection, schedule: Q04DX003 (ip), vehicle: other 115 % of control | dose: 25.0 mg/kg/injection, schedule: Q04DX003 (ip), vehicle: saline with Tween-80 104 % of control | dose: 37.0 mg/kg/injection, schedule: Q01DX009 (ip), vehicle: saline with Tween-80 91 % of control | dose: 50.0 mg/kg/injection, schedule: Q01DX001 (ip), vehicle: saline with Tween-80 101 % of control | dose: 50.0 mg/kg/injection, schedule: Q04DX003 (ip), vehicle: other 105 % of control | dose: 50.0 mg/kg/injection, schedule: Q04DX003 (ip), vehicle: saline with Tween-80 103 % of control | [1] 111 % of control | [2] 113 % of control | [3] 100 % of control

N#CCCN1CCCC(=O)NC1=O
inactive: [4] 103 % of control | [5] 105 % of control | [6] 94 % of control | [7] 103 % of control | [8] 97 % of control | [9] 100 % of control

CC(=O)c1cccc(O)c1
inactive: dose: 100.0 mg/kg/injection, schedule: Q04DX002 (ip), vehicle: saline with Tween-80 98 % of control | dose: 200.0 mg/kg/injection, schedule: Q04DX002 (ip), vehicle: saline with Tween-80 95 % of control | dose: 400.0 mg/kg/injection, schedule: Q04DX002 (ip), vehicle: saline with Tween-80 102 % of control

O=c1ccc2ccccc2n1Cc1ccc2ccccc2n1
inactive: dose: 12.5 mg/kg/injection, schedule: Q01DX001 (ip), vehicle: acetone 100 % of control | dose: 12.5 mg/kg/injection, schedule: Q04DX003 (ip), vehicle: saline 96 % of control | dose: 25.0 mg/kg/injection, schedule: Q01DX001 (ip), vehicle: acetone 92 % of control | dose: 25.0 mg/kg/injection, schedule: Q04DX003 (ip), vehicle: saline 91 % of control | dose: 50.0 mg/kg/injection, schedule: Q01DX001 (ip), vehicle: acetone 95 % of control | dose: 50.0 mg/kg/injection, schedule: Q04DX003 (ip), vehicle: saline 96 % of control | dose: 75.0 mg/kg/injection, schedule: Q04DX003 (ip), vehicle: saline 95 % of control | dose: 100.0 mg/kg/injection, schedule: Q01DX001 (ip), vehicle: other 97 % of control | [4] 104 % of control | [1] 109 % of control | dose: 115.0 mg/kg/injection, schedule: Q04DX003 (ip), vehicle: saline 90 % of control | dose: 200.0 mg/kg/injection, schedule: Q01DX001 (ip), vehicle: other 100 % of control | [6] 95 % of control | [2] 104 % of control | dose: 400.0 mg/kg/injection, schedule: Q01DX001 (ip), vehicle: other 94 % of control | [8] 101 % of control | [3] 104 % of control

CCCCCCCCCCCCCCC/C(CC)=N/Nc1ccc([N+](=O)[O-])cc1[N+](=O)[O-]
inactive: dose: 25.0 mg/kg/injection, schedule: Q01DX001 (ip), vehicle: Klucel (hydroxypropylcellulose) (HPC) 103 % of control | dose: 50.0 mg/kg/injection, schedule: Q01DX001 (ip), vehicle: Klucel (hydroxypropylcellulose) (HPC) 101 % of control | [10] 111 % of control

CC(CP(c1ccccc1)c1ccccc1)(CP(c1ccccc1)c1ccccc1)CP(c1ccccc1)c1ccccc1
inactive: [10] 97 % of control | [11] 111 % of control | dose: 200.0 mg/kg/injection, schedule: Q01DX001 (ip), vehicle: Klucel (hydroxypropylcellulose) (HPC) 87 % of control | [12] 105 % of control | dose: 400.0 mg/kg/injection, schedule: Q01DX001 (ip), vehicle: Klucel (hydroxypropylcellulose) (HPC) 87 % of control | [13] 90 % of control

c1ccc(-c2[nH]c3ccccc3c2-c2ccccc2)cc1
inactive: dose: 50.0 mg/kg/injection, schedule: Q04DX003 (ip), vehicle: Klucel (hydroxypropylcellulose) (HPC) 90 % of control | [14] 106 % of control | [11] 98 % of control | [15] 103 % of control | [12] 106 % of control | [16] 96 % of control | [13] 92 % of control

COc1cc(Br)c(CC(=O)O)cc1OC
inactive: dose: 100.0 mg/kg/injection, schedule: Q04DX003 (ip), vehicle: acetone 96 % of control | dose: 200.0 mg/kg/injection, schedule: Q04DX003 (ip), vehicle: acetone 95 % of control | dose: 400.0 mg/kg/injection, schedule: Q04DX003 (ip), vehicle: acetone 93 % of control

COc1cc(CCO)cc(OC)c1
inactive: dose: 100.0 mg/kg/injection, schedule: Q01DX001 (ip), vehicle: carboxymethylcellulose (CMC) 86 % of control | dose: 200.0 mg/kg/injection, schedule: Q01DX001 (ip), vehicle: carboxymethylcellulose (CMC) 86 % of control

CC1(C#N)CC/C(=C\c2ccc3c(c2)OCO3)C(=O)C1 (centres undefined)
inactive: [5] 96 % of control | [7] 91 % of control | [9] 107 % of control

C=CC1CCN(CCn2cnc3c(N)ncnc32)CC1
inactive: dose: 100.0 mg/kg/injection, schedule: Q04DX003 (ip), vehicle: saline with Tween-80 97 % of control | dose: 200.0 mg/kg/injection, schedule: Q04DX003 (ip), vehicle: saline with Tween-80 103 % of control | dose: 400.0 mg/kg/injection, schedule: Q04DX003 (ip), vehicle: saline with Tween-80 97 % of control

O=C(O)COc1nc2ccccc2s1
inactive: [14] 95 % of control | dose: 100.0 mg/kg/injection, schedule: Q04DX003 (ip), vehicle: alcohol 105 % of control | [15] 96 % of control | dose: 200.0 mg/kg/injection, schedule: Q04DX003 (ip), vehicle: alcohol 98 % of control | [16] 88 % of control | dose: 400.0 mg/kg/injection, schedule: Q04DX003 (ip), vehicle: alcohol 94 % of control
